Measured values as given in the supplement of paper PMC10307832.

Key:
Assay in all cases: relative viability (nuclei count vs DMSO), 5 days (fraction); higher = more cells survive
[1] = compound: O=C(NCCCNc1nc(Nc2cccc(NC(=O)N3CCCC3)c2)ncc1I)c1cccs1 [BX 795] + CC(=O)c1c(C)c2cnc(Nc3ccc(N4CCNCC4)cn3)nc2n(C2CCCC2)c1=O [Palbociclib] (partner 0.5 µM)
How it was run: (§1)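 Relative viability is defined as nuclei in treated wells over nuclei in vehicle wells. Duplicate plates were run and medians reported. Lung cancer cell lines in 1536-well plates were dosed by pin tool one day after seeding, with one drug or with a fixed anchor-drug dose plus five library-drug doses (not always all listed) in √10 steps, and nuclei were counted after 5 days.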

[2] = compound: O=C(NCCCNc1nc(Nc2cccc(NC(=O)N3CCCC3)c2)ncc1I)c1cccs1 [BX 795] + CS(=O)(=O)N1CCN(Cc2cc3nc(-c4cccc5[nH]ncc45)nc(N4CCOCC4)c3s2)CC1 [Pictilisib] (partner 1 µM)
How it was run: as §1

[3] = compound: O=C(NCCCNc1nc(Nc2cccc(NC(=O)N3CCCC3)c2)ncc1I)c1cccs1 [BX 795] + COc1cccc2cc(-c3nc([C@H]4CC[C@H](C(=O)O)CC4)n4ncnc(N)c34)[nH]c12 [OSI-027] (partner 0.5 µM)
How it was run: as §1

[4] = compound: O=C(NCCCNc1nc(Nc2cccc(NC(=O)N3CCCC3)c2)ncc1I)c1cccs1 [BX 795] + N=C(N)NC(=N)NCCc1ccccc1 [Phenformin] (partner 250 µM)
How it was run: as §1

[5] = compound: O=C(NCCCNc1nc(Nc2cccc(NC(=O)N3CCCC3)c2)ncc1I)c1cccs1 [BX 795] + CCNC(=O)c1noc(-c2cc(C(C)C)c(O)cc2O)c1-c1ccc(CN2CCOCC2)cc1 [Luminespib] (partner 0.01 µM)
How it was run: as §1

| Cell Line | relative viability ([1]; first compound 0.04 µM) | relative viability ([1]; first compound 0.1265 µM) | relative viability ([1]; first compound 0.4 µM) | relative viability ([1]; first compound 1.265 µM) | relative viability ([2]; first compound 0.04 µM) | relative viability ([2]; first compound 0.1265 µM) | relative viability ([2]; first compound 0.4 µM) | relative viability ([2]; first compound 1.265 µM) | relative viability ([3]; first compound 0.04 µM) | relative viability ([3]; first compound 0.1265 µM) | relative viability ([3]; first compound 0.4 µM) | relative viability ([3]; first compound 1.265 µM) | relative viability ([4]; first compound 0.04 µM) | relative viability ([4]; first compound 0.1265 µM) | relative viability ([4]; first compound 0.4 µM) | relative viability ([4]; first compound 1.265 µM) | relative viability ([5]; first compound 0.04 µM) | relative viability ([5]; first compound 0.1265 µM) | relative viability ([5]; first compound 0.4 µM) | relative viability ([5]; first compound 1.265 µM) |
| --- | --- | --- | --- | --- | --- | --- | --- | --- | --- | --- | --- | --- | --- | --- | --- | --- | --- | --- | --- | --- |
| UMC-11 | 0.301 | 0.355 | 0.306 | 0.333 | 0.726 | 0.86 | 0.683 | 0.534 | 0.469 | 0.43 | 0.371 | 0.27 | 0.291 | 0.322 | 0.253 | 0.19 | 0.751 | 1.06 | 1.07 | 0.271 |
| LOU-NH91 | 0.5 | 0.478 | 0.558 | 0.5 | 0.509 | 0.507 | 0.541 | 0.5 | 0.794 | 0.75 | 0.735 | 0.724 | 0.861 | 0.713 | 0.658 | 0.697 | 0.372 | 0.3 | 0.303 | 0.307 |
| NCI-H1915 | 0.63 | 0.501 | 0.637 | 0.485 | 0.98 | 0.831 | 0.954 | 0.798 | 0.7 | 0.6 | 0.663 | 0.469 | 0.388 | 0.389 | 0.38 | 0.301 | 0.688 | 0.891 | 0.71 | 0.624 |
| NCI-H1666 | 0.536 | 0.641 | 0.7 | 0.657 | 0.364 | 0.516 | 0.449 | 0.273 | 0.859 | 0.876 | 0.993 | 0.803 | 0.362 | 0.568 | 0.483 | 0.49 | 1 | 1.04 | 1.07 | 0.893 |
| LCLC-97TM1 | 0.22 | 0.201 | 0.314 | 0.208 | 0.186 | 0.163 | 0.206 | 0.137 | 0.462 | 0.604 | 0.673 | 0.332 | 0.495 | 0.444 | 0.457 | 0.348 | 0.939 | 0.657 | 0.774 | 0.456 |
| HCC-827 | 0.551 | 0.501 | 0.478 | 0.484 | 1.13 | 1.02 | 1.12 | 0.961 | 0.839 | 0.81 | 0.933 | 0.763 | 0.448 | 0.372 | 0.414 | 0.387 | 0.746 | 0.657 | 0.823 | 0.644 |
| NCI-H647 | 0.425 | 0.365 | 0.384 | 0.3 |  | 0.363 | 0.438 | 0.343 | 0.723 | 0.826 | 0.581 | 0.584 | 0.456 | 0.541 | 0.572 | 0.266 | 0.149 | 0.134 | 0.104 | 0.105 |
| NCI-H460 | 0.163 | 0.156 | 0.0784 | 0.149 | 0.361 | 0.418 | 0.374 | 0.261 | 0.633 | 0.561 | 0.543 | 0.224 | 0.5 | 0.609 | 0.415 | 0.372 | 0.0385 | 0.0327 | 0.0422 | 0.0269 |
